From patent US20260184693A1, “INHIBITORS OF SOLUTE CARRIER FAMILY 6A MEMBER 19 (SLC6A19) AND METHODS OF USE THEREOF” (Maze Therapeutics, Inc., priority 2022, published 2026) come the findings set out here.

Where only a bound is given, the exact number is not on record here.

The assay addresses T1, human SLC6A19 (Homo sapiens, UniProt Q695T7).
T1 construct: expressed in transfected cells
T1 sequence (Q695T7 1-634): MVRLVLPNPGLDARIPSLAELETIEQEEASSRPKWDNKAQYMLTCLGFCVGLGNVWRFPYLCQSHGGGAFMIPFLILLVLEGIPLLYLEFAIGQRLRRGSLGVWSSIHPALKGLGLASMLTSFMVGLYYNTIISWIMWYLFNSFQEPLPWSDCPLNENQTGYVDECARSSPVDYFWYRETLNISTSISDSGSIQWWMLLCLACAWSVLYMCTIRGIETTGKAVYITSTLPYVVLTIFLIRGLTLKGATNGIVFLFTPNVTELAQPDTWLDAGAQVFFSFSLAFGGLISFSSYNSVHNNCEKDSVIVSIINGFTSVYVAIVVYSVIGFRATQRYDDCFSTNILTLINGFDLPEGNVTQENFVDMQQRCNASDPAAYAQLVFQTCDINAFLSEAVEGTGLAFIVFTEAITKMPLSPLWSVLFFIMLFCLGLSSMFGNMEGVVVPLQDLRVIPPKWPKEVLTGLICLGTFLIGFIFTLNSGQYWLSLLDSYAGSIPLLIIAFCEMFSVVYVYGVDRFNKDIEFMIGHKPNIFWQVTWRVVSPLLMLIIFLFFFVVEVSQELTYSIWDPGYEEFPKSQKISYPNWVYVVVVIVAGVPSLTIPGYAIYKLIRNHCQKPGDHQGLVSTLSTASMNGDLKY
T1 sequence (Q9HBJ8 15-222 partner): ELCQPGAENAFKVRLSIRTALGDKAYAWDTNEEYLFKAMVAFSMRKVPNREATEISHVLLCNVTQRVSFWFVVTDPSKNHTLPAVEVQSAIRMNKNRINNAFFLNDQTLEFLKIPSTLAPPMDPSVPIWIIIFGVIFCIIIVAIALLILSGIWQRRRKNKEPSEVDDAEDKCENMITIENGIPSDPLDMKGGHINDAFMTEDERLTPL
Briefly: Example B2: 13C6,15N-isoleucine uptake, RapidFire mass spectrometry, in CHO cells with doxycycline-inducible expression of human SLC6A19 and TMEM27. Format: cell-based. Particulars: read-out: SLC6A19_RapidFire Uptake Assay IC50. How it is done:
Assay ready vials of CHO cells with doxycycline inducible expression of human SLC6A19 and TMEM27 were thawed, plated in T175 flasks containing DMEM/F12 media, 10% FBS, 100 Penicillin-Streptomycin, 1× UltraGlutamate, 1 mM Sodium Pyruvate, Sodium Bicarbonate (7.5 mL of 7.5% solution in 500 mL media final), […] Blasticidin, 150 µg/mL Hygromycin B Gold, and 500 µg/mL G418, and incubated (humidified, 37° C. with […]) for 48 hours. Media was then removed, flasks were washed with 20 mL of DPBS, and 5 mL of TryμLE™ Express was added to each flask to initiate cell dissociation. After 5 minutes, 10 mL of cell culture media was added to each flask and mixed. The cell suspension was collected and centrifuged for 5 minutes at 200×g. The supernatant was removed, and the pellet was resuspended in 10 mL of cell culture media. Resuspended cells were counted using a Vi-Cell. 30 μL/well (20,000 cells/well) of cell suspension was added to Poly-D-Lysine 384-well black/clear plates. Plates were incubated (humidified, 37° C. with 5% CO2) for 24 hours. To induce expression of human SLC6A19 and TMEM27, 10 μL of assay culture media containing 4 μg/mL doxycycline was added to each well. Assay plates were then incubated (humidified, 37° C. with 5% CO2) overnight. After incubation, the media was removed, and wells were washed 3 times with 40 μL of warmed DPBS. […] All compounds were plated in a duplicate 10-point dilution series that consisted of 2-fold dilutions. The plates were incubated (humidified, 37° C. with 5% CO2) with compound for 20 minutes. Afterwards, 20 μL/well of 2 mM 13C6,15N-1-isoleucine was added to each well and plates were incubated again (humidified, 37° C. with 5% CO2) for another 20 minutes. Assay buffer was then removed, and plates were washed. 70 μL/well of stop solution (75% acetonitrile, 25% HPLC grade water, 250 nM 1-leucine-1-13 C (RapidFire standard)) was added to each well. The plates were sealed and then placed in a −20° C. freezer for 20 minutes. The plates were thawed at room temperature for 20 minutes and then centrifuge for 20 minutes at 3000 rpm. Using an ABSciex API4000 mass spectrometer, processed samples were loaded onto the graphitic carbon SPE-column. The time for aspiration, load/wash, elution and re-equilibration time was 600, 1500, 3000 and 500 milliseconds, respectively. Peak areas were calculated using RapidFire Integrator software.

Usually IC50 stands for the midpoint of a concentration-inhibition curve. Turning to `CN(C(=O)NCc1cc2cc(Cl)ccc2[nH]1)[C@@H]1CCCN(C(=O)c2cnnn2C)C1` [Compound 26, (R)-3-((5-chloro-1H-indol-2-yl)methyl)-1-methyl-1-(1-(1-methyl-1H-1,2,3-triazole-5-carbonyl)piperidin-3-yl)urea], the half-maximal inhibitory concentration (IC50) was found to be 5260 nM.
As to `Cc1ncoc1C(=O)N1CCC[C@@H](N(C)C(=O)NCc2cc3cc(Cl)ccc3[nH]2)C1` [Compound 27, (R)-3-((5-chloro-1H-indol-2-yl)methyl)-1-methyl-1-(1-(4-methyloxazole-5-carbonyl)piperidin-3-yl)urea], the IC50 was found to be 821 nM.
Next, `CN(C(=O)NCc1cc2cc(Cl)ccc2[nH]1)[C@@H]1CCCN(C(=O)c2ncnn2C)C1` [Compound 28, (R)-3-((5-chloro-1H-indol-2-yl)methyl)-1-methyl-1-(1-(1-methyl-1H-1,2,4-triazole-5-carbonyl)piperidin-3-yl)urea]: > 23400 nM.
As for `CN(C(=O)NCc1cc2cc(Cl)ccc2[nH]1)[C@@H]1CCCN(C(=O)CNC(N)=O)C1` [Compound 29, (R)-1-(1-(carbamoylglycyl)piperidin-3-yl)-3-((5-chloro-1H-indol-2-yl)methyl)-1-methylurea], the figure is 2490 nM; as for `CN(C(=O)NCc1cc2cc(Cl)ccc2[nH]1)[C@@H]1CCCN(C(=O)Cn2nccn2)C1` [Compound 30, (R)-1-(1-(2-(2H-1,2,3-triazol-2-yl)acetyl)piperidin-3-yl)-3-((5-chloro-1H-indol-2-yl)methyl)-1-methylurea], 3700 nM.
On to `Cc1cc(C(=O)N2CCC[C@@H](N(C)C(=O)NCc3cc4cc(Cl)ccc4[nH]3)C2)on1` [Compound 31, (R)-3-((5-chloro-1H-indol-2-yl)methyl)-1-methyl-1-(1-(3-methylisoxazole-5-carbonyl)piperidin-3-yl)urea], for which the IC50 came to 1490 nM.
`CN(C(=O)NCc1cc2cc(Cl)ccc2[nH]1)[C@@H]1CCCN(C(=O)CS(C)(=O)=O)C1` [Compound 32, (R)-3-((5-chloro-1H-indol-2-yl)methyl)-1-methyl-1-(1-(2-(methylsulfonyl)acetyl)piperidin-3-yl)urea]: the concentration for half-maximal inhibition (IC50) was 8610 nM.
For the compound `CC(C)C(=O)N1CCC[C@@H](N(C)C(=O)NCc2cc3cc(Cl)ccc3[nH]2)C1` [Compound 33, (R)-3-((5-chloro-1H-indol-2-yl)methyl)-1-(1-isobutyrylpiperidin-3-yl)-1-methylurea], the IC50 came out at 405 nM.
Turning to `CN(C(=O)NCc1cc2cc(Cl)ccc2[nH]1)[C@@H]1CCCN(C(=O)c2ccncc2)C1` [Compound 34, (R)-3-((5-chloro-1H-indol-2-yl)methyl)-1-(1-isonicotinoylpiperidin-3-yl)-1-methylurea], the IC50 turned out to be 1400 nM.
Turning to `Cc1cnc(C(=O)N2CCC[C@@H](N(C)C(=O)NCc3cc4cc(Cl)ccc4[nH]3)C2)s1` [Compound 35, (R)-3-((5-chloro-1H-indol-2-yl)methyl)-1-methyl-1-(1-(5-methylthiazole-2-carbonyl)piperidin-3-yl)urea], the 50% inhibitory concentration (IC50) came to 556 nM.
As for `Cc1cnoc1C(=O)N1CCC[C@@H](N(C)C(=O)NCc2cc3cc(Cl)ccc3[nH]2)C1` [Compound 36, (R)-3-((5-chloro-1H-indol-2-yl)methyl)-1-methyl-1-(1-(4-methylisoxazole-5-carbonyl)piperidin-3-yl)urea], the figure is 1570 nM; as for `CN(C(=O)NCc1cc2cc(Cl)ccc2[nH]1)[C@@H]1CCCN(C(=O)c2ncc[nH]c2=O)C1` [Compound 37, (R)-3-((5-chloro-1H-indol-2-yl)methyl)-1-methyl-1-(1-(3-oxo-3,4-dihydropyrazine-2-carbonyl)piperidin-3-yl)urea], 19600 nM.
For the compound `Cc1ncc(C(=O)N2CCC[C@@H](N(C)C(=O)NCc3cc4cc(Cl)ccc4[nH]3)C2)o1` [Compound 38, (R)-3-((5-chloro-1H-indol-2-yl)methyl)-1-methyl-1-(1-(2-methyloxazole-5-carbonyl)piperidin-3-yl)urea], the half-inhibitory concentration (IC50) is 428 nM.
As to `CN(C(=O)NCc1cc2cc(Cl)ccc2[nH]1)[C@@H]1CCCN(C(=O)c2ccn(C(F)F)n2)C1` [Compound 39, (R)-3-((5-chloro-1H-indol-2-yl)methyl)-1-(1-(1-(difluoromethyl)-1H-pyrazole-3-carbonyl)piperidin-3-yl)-1-methylurea], the IC50 came to 231 nM.
Regarding `CCC(O)C(=O)N1CCC[C@@H](N(C)C(=O)NCc2cc3cc(Cl)ccc3[nH]2)C1` (stereo partly drawn) [Compound 40, 3-((5-chloro-1H-indol-2-yl)methyl)-1-((3R)-1-(2-hydroxybutanoyl)piperidin-3-yl)-1-methylurea], the half-inhibitory concentration (IC50) turned out to be 5250 nM.
Consider `Cc1cc(C(=O)N2CCC[C@@H](N(C)C(=O)NCc3cc4cc(Cl)ccc4[nH]3)C2)[nH]n1` [Compound 41, (R)-3-((5-chloro-1H-indol-2-yl)methyl)-1-methyl-1-(1-(3-methyl-1H-pyrazole-5-carbonyl)piperidin-3-yl)urea], for which the half-maximal inhibitory concentration (IC50) was determined as 854 nM.
As for `CN(C(=O)NCc1cc2cc(Cl)ccc2[nH]1)[C@@H]1CCCN(C(=O)c2cccc(F)c2F)C1` [Compound 42, (R)-3-((5-chloro-1H-indol-2-yl)methyl)-1-(1-(2,3-difluorobenzoyl)piperidin-3-yl)-1-methylurea], the figure is 1240 nM.
Consider `COC(C)C(=O)N1CCC[C@@H](N(C)C(=O)NCc2cc3cc(Cl)ccc3[nH]2)C1` (stereo partly drawn) [Compound 43, 3-((5-chloro-1H-indol-2-yl)methyl)-1-((3R)-1-(2-methoxypropanoyl)piperidin-3-yl)-1-methylurea], for which the IC50 was 6250 nM.
For `CN(C(=O)NCc1cc2cc(Cl)ccc2[nH]1)[C@@H]1CCCN(C(=O)C2CC(F)(F)C2)C1` [Compound 44, (R)-3-((5-chloro-1H-indol-2-yl)methyl)-1-(1-(3,3-difluorocyclobutane-1-carbonyl)piperidin-3-yl)-1-methylurea], the IC50 is 350 nM.
As to `CN(C(=O)NCc1cc2cc(Cl)ccc2[nH]1)[C@@H]1CCCN(C(=O)C2(C)CC2)C1` [Compound 45, (R)-3-((5-chloro-1H-indol-2-yl)methyl)-1-methyl-1-(1-(1-methylcyclopropane-1-carbonyl)piperidin-3-yl)urea], the half-maximal inhibitory concentration (IC50) stood at 1550 nM.
Take `CN(C(=O)NCc1cc2cc(Cl)ccc2[nH]1)[C@@H]1CCCN(C(=O)CCC(N)=O)C1` [Compound 46, (R)-4-(3-(3-((5-chloro-1H-indol-2-yl)methyl)-1-methylureido)piperidin-1-yl)-4-oxobutanamide]: the IC50 came to 1240 nM.
With `CN(C(=O)NCc1cc2cc(Cl)ccc2[nH]1)[C@@H]1CCCN(C(=O)c2cc(CO)on2)C1` [Compound 47, (R)-3-((5-chloro-1H-indol-2-yl)methyl)-1-(1-(5-(hydroxymethyl)isoxazole-3-carbonyl)piperidin-3-yl)-1-methylurea], the 50% inhibitory concentration (IC50) turned out to be 2460 nM.
With `CN(C(=O)NCc1cc2cc(Cl)ccc2[nH]1)[C@@H]1CCCN(C(=O)C2CCC2)C1` [Compound 48, (R)-3-((5-chloro-1H-indol-2-yl)methyl)-1-(1-(cyclobutanecarbonyl)piperidin-3-yl)-1-methylurea], the IC50 was found to be 44.2 nM.
For the compound `CN(C(=O)NCc1cc2cc(Cl)ccc2[nH]1)[C@@H]1CCCN(C(=O)CC2CC2)C1` [Compound 49, (R)-3-((5-chloro-1H-indol-2-yl)methyl)-1-(1-(2-cyclopropylacetyl)piperidin-3-yl)-1-methylurea], the IC50 is 371 nM.
